Experimental data: ChEMBL document CHEMBL4049384, “Synthesis and evaluation of an injectable everolimus prodrug” (Bioorg Med Chem Lett, 2017)

Assays:
Mus musculus [1] = experiment: Toxicity in nude mouse xenografted with human OS-RC-2 cells assessed as body weight loss at 1.5 mg/kg, iv administered three times a week measured after 32 days (reference value: 33%); format: organism-based; conditions: in vivo, 768 h
NCI-H460 = experiment: Antiproliferative activity against human NCI-H460 cells after 48 hrs by MTT assay; format: functional, cell-based; conditions: NCI-H460, 48 h
PC-3 = experiment: Antiproliferative activity against human PC3 cells after 48 hrs by MTT assay; format: functional, cell-based; conditions: PC-3, 48 h
Serum = experiment: Prodrug conversion in rat serum assessed as everolimus formation after 4 hrs by HPLC analysis; format: ADME, cell-free
OS-RC-2 [2] = experiment: Antitumor activity against human OS-RC2 cells xenografted in nude mouse assessed as tumor weight at 24 mg/kg, iv administered once weekly measured after 32 days (reference value: 0.68 +/- 0.06 g); format: functional
OS-RC-2 [3] = experiment: Antitumor activity against human OS-RC2 cells xenografted in nude mouse assessed as tumor growth inhibition at 1.5 mg/kg, iv administered three times a week measured after 32 days relative to control; format: functional; conditions: OS-RC-2, iv, 768 h, read-out: TGI
OS-RC-2 [4] = experiment: Antitumor activity against human OS-RC2 cells xenografted in nude mouse assessed as tumor growth inhibition at 24 mg/kg, iv administered once weekly measured after 32 days relative to control; format: functional; conditions: OS-RC-2, iv, 768 h, read-out: TGI
Rattus norvegicus = experiment: Prodrug conversion in rat assessed as everolimus formation by measuring everolimus AUC at 2 mg/kg, iv; format: ADME, organism-based; conditions: in vivo
[5] = AUC (0 to t) in Sprague-Dawley rat at 2.724 mg/kg, iv; format: ADME, organism-based; conditions: in vivo
[6] = Cmax in Sprague-Dawley rat at 2.724 mg/kg, iv; format: ADME, organism-based; set-up: dose 2.724 mg/kg, route intravenous; conditions: in vivo
Blood [7] = experiment: Prodrug conversion in Sprague-Dawley rat blood assessed as everolimus level at 2.724 mg/kg, iv at 0.25 hrs post dose by HPLC method; format: ADME, organism-based; conditions: in vivo
Blood [8] = experiment: Prodrug conversion in Sprague-Dawley rat blood assessed as everolimus level at 2.724 mg/kg, iv at 3 hrs post dose by HPLC method; format: ADME, organism-based; conditions: in vivo
Blood [9] = experiment: Prodrug conversion in Sprague-Dawley rat blood assessed as everolimus level at 2.724 mg/kg, iv at 6 hrs post dose by HPLC method; format: ADME, organism-based; conditions: in vivo
Blood [10] = experiment: Prodrug conversion in Sprague-Dawley rat blood assessed as everolimus level at 2.724 mg/kg, iv at 8 hrs post dose by HPLC method; format: ADME, organism-based; conditions: in vivo
Blood [11] = experiment: Prodrug conversion in Sprague-Dawley rat blood assessed as everolimus level at 2.724 mg/kg, iv at 24 hrs post dose by HPLC method; format: ADME, organism-based; conditions: in vivo
OS-RC-2 [12] = experiment: Antitumor activity against human OS-RC2 cells xenografted in nude mouse assessed as reduction in tumor volume at 1.5 mg/kg, iv administered three times a week measured on day 5 relative to control; format: functional
OS-RC-2 [13] = experiment: Antitumor activity against human OS-RC2 cells xenografted in nude mouse assessed as reduction in tumor volume at 1.5 mg/kg, iv administered three times a week measured on day 8 relative to control; format: functional
OS-RC-2 [14] = experiment: Antitumor activity against human OS-RC2 cells xenografted in nude mouse assessed as reduction in tumor volume at 1.5 mg/kg, iv administered three times a week measured on day 15 relative to control; format: functional
OS-RC-2 [15] = experiment: Antitumor activity against human OS-RC2 cells xenografted in nude mouse assessed as reduction in tumor volume at 1.5 mg/kg, iv administered three times a week measured on day 22 relative to control; format: functional
OS-RC-2 [16] = experiment: Antitumor activity against human OS-RC2 cells xenografted in nude mouse assessed as reduction in tumor volume at 1.5 mg/kg, iv administered three times a week measured on day 26 relative to control; format: functional
OS-RC-2 [17] = experiment: Antitumor activity against human OS-RC2 cells xenografted in nude mouse assessed as tumor volume at 24 mg/kg, iv administered once weekly and measured on day 1 (reference value: 167.51 +/- 17.09 mm3); format: functional
OS-RC-2 [18] = experiment: Antitumor activity against human OS-RC2 cells xenografted in nude mouse assessed as reduction in tumor volume at 24 mg/kg, iv administered once weekly measured on day 8 relative to control; format: functional
OS-RC-2 [19] = experiment: Antitumor activity against human OS-RC2 cells xenografted in nude mouse assessed as reduction in tumor volume at 24 mg/kg, iv administered once weekly measured on day 15 relative to control; format: functional
OS-RC-2 [20] = experiment: Antitumor activity against human OS-RC2 cells xenografted in nude mouse assessed as reduction in tumor volume at 24 mg/kg, iv administered once weekly measured on day 22 relative to control; format: functional
OS-RC-2 [21] = experiment: Antitumor activity against human OS-RC2 cells xenografted in nude mouse assessed as reduction in tumor volume at 24 mg/kg, iv administered once weekly measured on day 32 relative to control; format: functional
Mus musculus [22] = experiment: Toxicity in nude mouse xenografted with human OS-RC2 cells assessed as body weight loss at 1.5 mg/kg administered three times a week intravenously and measured on Day 8 (reference value: 8.5 %); format: organism-based; conditions: in vivo, iv
Mus musculus [23] = experiment: Toxicity in nude mouse xenografted with human OS-RC2 cells assessed as body weight loss at 1.5 mg/kg administered three times a week intravenously and measured on Day 12 (reference value: 15 %); format: organism-based; conditions: in vivo, iv
Mus musculus [24] = experiment: Toxicity in nude mouse xenografted with human OS-RC2 cells assessed as body weight loss at 1.5 mg/kg administered three times a week intravenously and measured on Day 19 (reference value: 23.1 %); format: organism-based; conditions: in vivo, iv
Mus musculus [25] = experiment: Toxicity in nude mouse xenografted with human OS-RC2 cells assessed as body weight loss at 1.5 mg/kg administered three times a week intravenously and measured on Day 26 (reference value: 28.2 %); format: organism-based; conditions: in vivo, iv
Mus musculus [26] = experiment: Toxicity in nude mouse xenografted with human OS-RC2 cells assessed as body weight loss at 24 mg/kg, iv administered once weekly measured on day 15 (reference value: 20.2 %); format: organism-based; conditions: in vivo
Mus musculus [27] = experiment: Toxicity in nude mouse xenografted with human OS-RC2 cells assessed as body weight loss at 24 mg/kg, iv administered once weekly measured on day 22 (reference value: 23.1 %); format: organism-based; conditions: in vivo
Mus musculus [28] = experiment: Toxicity in nude mouse xenografted with human OS-RC-2 cells assessed as body weight at 24 mg/kg, iv administered once weekly measured on day 1 (reference value: 20.4 +/- 0.33 g); format: organism-based; conditions: in vivo
[29] = Prodrug conversion in phosphate buffered saline at pH 7.4 assessed as everolimus formation
Mus musculus [30] = experiment: Toxicity in nude mouse xenografted with human OS-RC-2 cells assessed as death at 24 mg/kg, iv administered once weekly measured after 32 days; format: organism-based; conditions: in vivo, 768 h

## CO[C@H]1C[C@@H]2CC[C@@H](C)[C@@](O)(O2)C(=O)C(=O)N2CCCC[C@H]2C(=O)O[C@H]([C@H](C)C[C@@H]2CC[C@@H](OCCOC(=O)CSC[C@H](NC(=O)CC[C@H](N)C(=O)O)C(=O)NCC(=O)O)[C@H](OC)C2)CC(=O)[C@H](C)/C=C(\C)[C@@H](O)[C@@H](OC)C(=O)[C@H](C)C[C@H](C)\C=C/C=C/C=C/1C
Mus musculus [1]
  Activity: 12.3%
NCI-H460
  IC50: 27.2 µM
PC-3
  IC50: 25.9 µM
Serum
  Drug metabolism: Metabolite_Detected
OS-RC-2 [2]
  Activity: 0.26 g
OS-RC-2 [3]
  inhibition in vivo at 1.5 mg/kg: 57.1%
OS-RC-2 [4]
  inhibition in vivo at 24 mg/kg: 60.6%
Rattus norvegicus
  AUC: 2500 ng·h/mL
[5]
  AUC(0-t): 2490 ng·h/mL
[6]
  Cmax: 8420 ng/mL
Blood [7]
  Drug metabolism: 1995.0467 ng/mL
Blood [8]
  Drug metabolism: 16.9443 ng/mL
Blood [9]
  Drug metabolism: 8.113 ng/mL
Blood [10]
  Drug metabolism: 6.8915 ng/mL
Blood [11]
  Drug metabolism: 2.3295 ng/mL
OS-RC-2 [12]
  T/C: 0.72%
OS-RC-2 [13]
  T/C: 0.57%
OS-RC-2 [14]
  T/C: 0.55%
OS-RC-2 [15]
  T/C: 0.56%
OS-RC-2 [16]
  T/C: 0.52%
OS-RC-2 [17]
  Activity: 167.06 mm3
OS-RC-2 [18]
  T/C: 0.41%
OS-RC-2 [19]
  T/C: 0.41%
OS-RC-2 [20]
  T/C: 0.55%
OS-RC-2 [21]
  T/C: 0.53%
Mus musculus [22]
  Activity: 9.2%
Mus musculus [23]
  Activity: 9.5%
Mus musculus [24]
  Activity: 11.5%
Mus musculus [25]
  Activity: 13.1%
Mus musculus [26]
  Activity: 8.9%
Mus musculus [27]
  Activity: 10.2%
Mus musculus [28]
  Activity: 21.28 g
[29]
  Drug metabolism: Metabolite not detected
Mus musculus [30]
  Activity: Non-Toxic
